This note sets out measurements from patent publication US10800741B2 (ANCUREALL PHARMACEUTICAL (SHANGHAI) CO., LTD., priority 2017, dated 2020).

Bounds are passed on as bounds.

Common to all, as to type: cell-based, Human
Experiment [1] relates to MOLM-13 (FLT3-ITD). Put plainly: In vitro growth inhibition of MOLM-13 tumor cells (MTT/CCK8). The settings on record: Homo sapiens, MOLM-13; in vitro growth inhibition (or induction of apoptosis), cells cultured 3 to 5 days, MTT (CCK8); read-out: IC50 MOLM-13 (FLT3-ITD).
In experiment [2] the test system is H1703 (PDGFRa amp). Kind of experiment: In vitro growth inhibition of H1703 tumor cells (MTT/CCK8). Particulars: Homo sapiens, NCI-H1703; in vitro growth inhibition (or induction of apoptosis), cells cultured 3 to 5 days, MTT (CCK8); read-out: IC50 H1703 (PDGFRa amp).
In experiment [3] the test system is KATO III (FGFR2 amp). Put plainly: In vitro growth inhibition of KATO III tumor cells (MTT/CCK8). The settings on record: Homo sapiens, KATO III; in vitro growth inhibition (or induction of apoptosis), cells cultured 3 to 5 days, MTT (CCK8); read-out: IC50 KATO III (FGFR2 amp).
For experiment [4], the system named is KCL-22 (BCR-ABL). Kind of experiment: In vitro growth inhibition of KCL-22 tumor cells (MTT/CCK8). The settings on record: Homo sapiens, KCL-22; in vitro growth inhibition (or induction of apoptosis), cells cultured 3 to 5 days, MTT (CCK8); read-out: IC50 KCL-22 (BCR-ABL).
Experiment [5] has as its system Hep3B2 (FGFR3/4+++). Kind of experiment: In vitro growth inhibition of Hep3B2 tumor cells (MTT/CCK8). Particulars: Homo sapiens, Hep3B; in vitro growth inhibition (or induction of apoptosis), cells cultured 3 to 5 days, MTT (CCK8); read-out: IC50 Hep3B2 (FGFR3/4+++).
Experiment [6] deals with Karpas 299 (NPM-ALK). Kind of experiment: In vitro growth inhibition of Karpas 299 tumor cells (MTT/CCK8). The settings on record: Homo sapiens, KARPAS-299; in vitro growth inhibition (or induction of apoptosis), cells cultured 3 to 5 days, MTT (CCK8); read-out: IC50 Karpas 299 (NPM-ALK).
For experiment [7], the system named is H1581 (FGFR1 amp). Put plainly: In vitro growth inhibition of H1581 tumor cells (MTT/CCK8). Particulars: Homo sapiens, NCI-H1581; in vitro growth inhibition (or induction of apoptosis), cells cultured 3 to 5 days, MTT (CCK8); read-out: IC50 H1581 (FGFR1 amp).
Experiment [8] concerns Kasumi-1 (KIT N822K). Kind of experiment: In vitro growth inhibition of Kasumi-1 tumor cells (MTT/CCK8). The settings on record: Homo sapiens, Kasumi 1; in vitro growth inhibition (or induction of apoptosis), cells cultured 3 to 5 days, MTT (CCK8); read-out: IC50 Kasumi-1 (KIT N822K).

Turning to `COc1cc2nccc(Oc3ccc(NC(=O)Nc4cc(C(C)(C)C)n[nH]4)cc3Cl)c2cc1NC(C)=O` [Compound 101, N-(4-{4-[3-(5-tert-butyl-2H-pyrazol-3-yl)-ureido]-2-chloro-phenoxy}-7-methoxy-quinolin-6-yl)-acetamide], the IC50 in experiment [1] was determined as 0.08 nM; in experiment [2], 61.3 nM; in experiment [3], 2.34 nM; in experiment [4], 11 nM; in experiment [5], 110 nM; in experiment [6] it was 64.3 nM. Besides, the IC50 in experiment [7] worked out at 9.56 nM; in experiment [8] it was 24.1 nM.

For `COc1cc2nccc(Oc3ccc(NC(=O)Nc4cc(C(C)(C)C)on4)c(C)c3)c2cc1C(N)=O` [Compound 6, 4-{4-[3-(5-tert-butyl-isoxazol-3-yl)-ureido]-3-methyl-phenoxy}-7-methoxyquinolin-6-carboxamide], the IC50 amounted to 20.9 nM in experiment [1]; 15.6 nM in experiment [2]; 2.86 nM in experiment [3]; 17.8 nM in experiment [4]; 45.3 nM in experiment [5]; 689 nM in experiment [6]. Moreover, the IC50 in experiment [7] amounted to 10.6 nM; in experiment [8] it was 26.1 nM.

For the compound `CCC(=O)n1nc(C(C)(C)C)cc1NC(=O)Nc1ccc(Oc2ccnc3cc(OC)c(C(N)=O)cc23)cc1Cl` [Compound 29, 4-{4-[3-(5-tert-butyl-2-propanoyl-2H-pyrazol-3-yl)-ureido]-3-chloro-phenoxy}-7-methoxyquinolin-6-carboxamide], the IC50 in experiment [1] stood at 11.5 nM; in experiment [2], 18 nM; in experiment [3] it was 1.48 nM; in experiment [4], 29.4 nM; in experiment [5], 29.4 nM; in experiment [6] it was 626 nM. For the same compound, the IC50 is 26.3 nM in experiment [7] and 66.8 nM in experiment [8].

As to `CNC(=O)c1cc2c(Oc3ccc(NC(=O)Nc4cc(C(C)(C)C)n[nH]4)c(C(F)(F)F)c3)ccnc2cc1OC` [Compound 51, 4-{4-[3-(5-tert-butyl-2H-pyrazol-3-yl)-ureido]-3-trifluoromethyl-phenoxy}-7-methoxyquinolin-6-carboxylic acid methylamide], the IC50 in experiment [1] was found to be 142 nM; in experiment [2], 48.4 nM; in experiment [3] it was 1.14 nM; in experiment [4], 13 nM; in experiment [5], 88 nM; in experiment [6], 493 nM. For the same compound, the IC50 was determined as 51.4 nM in experiment [7] and 12.7 nM in experiment [8].

Turning to `CC(C)(C)c1cc(NC(=O)Nc2ccc(Oc3cc(C(F)(F)F)nc4ccccc34)cc2Cl)no1` [Compound 115, 1-(5-tert-butyl-isoxazol-3-yl)-3-[2-chloro-4-(2-trifluoromethyl-quinolin-4-yloxy)-phenyl]-urea], the IC50 is > 1000 nM in experiment [1]; > 1000 nM in experiment [2]; 746 nM in experiment [3]; > 5000 nM in experiment [4]; > 1000 nM in experiment [5]; > 1000 nM in experiment [6]. In addition, the IC50 in experiment [7] and in experiment [8] was > 1000 nM throughout.

On to `COc1cc2nccc(Oc3ccc(NC(=O)Nc4cc(C(C)(C)C)on4)c(Cl)c3)c2cc1NC(=O)C1CCCC1` [Compound 23, cyclopentane carboxylic acid (4-{4-[3-(5-tert-butyl-isoxazol-3-yl)-ureido]-3-chloro-phenoxy}-7-methoxyquinolin-6-yl)-amide], for which the IC50 was 94.9 nM in experiment [1]; 420 nM in experiment [2]; 10.5 nM in experiment [3]; 436 nM in experiment [4]; 214 nM in experiment [5]; > 1000 nM in experiment [6]. Further, the figures for the IC50 in experiment [7] and in experiment [8] were 227 nM and 547 nM, respectively.

As to `CNC(=O)c1cc2c(Oc3ccc(NC(=O)N4CCN(C)CC4)c(Cl)c3Cl)ccnc2cc1OCCOC` [Compound 75, 4-{2,3-dichloro-4-[(4-methyl-piperazin-1-carbonyl)-amino]-phenoxy}-7-(2-methoxy-ethoxy)-quinolin-6-carboxylic acid methylamide], the IC50 in experiment [1], in experiment [2], in experiment [3], in experiment [4], in experiment [5] and in experiment [6] was > 1000 nM throughout. The IC50 in experiment [7] and in experiment [8] was > 1000 nM throughout.

Turning to `CNC(=O)c1cc2c(Oc3ccc(NC(=O)Nc4cc(C(C)(C)C)n[nH]4)c(C)c3)ccnc2cc1OC` [Compound 49, 4-{4-[3-(5-tert-butyl-2H-pyrazol-3-yl)-ureido]-3-methyl-phenoxy}-7-methoxyquinolin-6-carboxylate acid methylamide], the IC50 in experiment [1] was 18.1 nM; in experiment [2] it was 15.4 nM; in experiment [3] it was 2.93 nM; in experiment [4] it was 31.2 nM; in experiment [5] it was 93.1 nM; in experiment [6] it was > 1000 nM. The IC50 in experiment [7] is 63.1 nM; in experiment [8], 100 nM.

On to `COc1cc2nccc(Oc3ccc(NC(=O)Nc4cc(C(C)(C)C)n[nH]4)c(C)c3)c2cc1C(N)=O` [Compound 34, 4-{4-[3-(5-tert-butyl-2H-pyrazol-3-yl)-ureido]-3-methyl-phenoxy}-7-methoxyquinolin-6-carboxamide], for which the IC50 amounted to 14.6 nM in experiment [1]; 88.1 nM in experiment [2]; 1.62 nM in experiment [3]; 98.2 nM in experiment [4]; 96.4 nM in experiment [5]; 641 nM in experiment [6]. In addition, the IC50 stood at 57.5 nM in experiment [7] and 135 nM in experiment [8].

As to `COc1cc2nccc(Oc3ccc(NC(=O)Nc4cc(C(C)(C)C)nn4C)c(Cl)c3)c2cc1C(N)=O` [Compound 26, 4-{4-[3-(5-tert-butyl-2-methyl-2H-pyrazol-3-yl)-ureido]-3-chloro-phenoxy}-7-methoxyquinolin-6-carboxamide], the IC50 in experiment [1] came out at 1.35 nM; in experiment [2], 8.2 nM; in experiment [3], 0.07 nM; in experiment [4], 5.16 nM; in experiment [5], 10.9 nM; in experiment [6], 524 nM. For the same compound, the IC50 in experiment [7] is 9.78 nM; in experiment [8] it was 16.9 nM.

For the compound `COc1cc2nccc(Nc3ccc(NC(=O)Nc4cc(C(C)(C)C)n[nH]4)cc3Cl)c2cc1C(N)=O` [Compound 97, 4-{4-[3-(5-tert-butyl-2H-pyrazol-3-yl)-ureido]-2-chloro-phenylamino}-7-methoxy-quinolin-6-carboxamide], the IC50 in experiment [1] turned out to be 0.8 nM; in experiment [2] it was 342 nM; in experiment [3] it was 117 nM; in experiment [4], 122 nM; in experiment [5], 456 nM; in experiment [6] it was 803 nM. Besides, the results for the IC50 in experiment [7] and in experiment [8] were 254 nM and > 1000 nM, respectively.

`CCC(=O)Nc1cc2c(Oc3ccc(NC(=O)Nc4cc(C(C)(C)C)n[nH]4)c(Cl)c3)ccnc2cc1OC` [Compound 64, N-(4-{4-[3-(5-tert-butyl-2H-pyrazol-3-yl)-ureido]-3-chloro-phenoxy}-7-methoxyquinolin-6-yl)-propionamide]: the IC50 was determined as 8.78 nM in experiment [1]; 13.1 nM in experiment [2]; 0.63 nM in experiment [3]; 17.4 nM in experiment [4]; 19 nM in experiment [5]; 186 nM in experiment [6]. The IC50 in experiment [7] stood at 8.64 nM; in experiment [8] it was 34.2 nM.

Take `COc1cc2nccc(Oc3ccc(NC(=O)N4CCc5ccsc5C4)c(Cl)c3)c2cc1C(N)=O` [Compound 74, 4-{3-chloro-4-[(4,7-dihydro-5H-thieno[2,3-c]pyridin-6-carbonyl)-amino]-phenoxy}-7-methoxyquinolin-6-carboxamide]: the IC50 in experiment [1], in experiment [2], in experiment [3], in experiment [4], in experiment [5] and in experiment [6] was > 1000 nM each time. Also, the IC50 in experiment [7] and in experiment [8] was > 1000 nM in each case.

With `COc1cc(Oc2ccnc3cc(OC)c(C(N)=O)cc23)ccc1NC(=O)n1nc(C(C)(C)C)cc1N` [Compound 73, 4-{4-[(5-amino-3-tert-butyl-pyrazol-1-carbonyl)-amino]-3-methoxy-phenoxy}-7-methoxyquinolin-6-carboxamide], the IC50 in experiment [1] came to 197 nM; in experiment [2], 222 nM; in experiment [3] it was 265 nM; in experiment [4], 80.6 nM; in experiment [5], 288 nM; in experiment [6], 88.5 nM. In addition, the figures for the IC50 in experiment [7] and in experiment [8] were 138 nM and 129 nM, respectively.
